The values that follow are results of earlier work, collected in patent US20100047334A1, “PH SENSITIVE LIPOSOME COMPOSITIONS FOR CONTROLLING SURFACE TOPOGRAPHY AND BINDING REACTIVITY IN FUNCTIONALIZED LIPOSOMES” (priority 2006, published 2010).

Where two headings read alike, the source gives them in different places.

Data set [1] has as its target streptavidin (Streptomyces avidinii, UniProt P22629).
For data set [2] the following is noted: highest reported value; 0.1 ionic strength; dimyristoyl- and dipalmitoyl-phosphatidylserine membranes.

Chain of streptavidin (P22629 25-183): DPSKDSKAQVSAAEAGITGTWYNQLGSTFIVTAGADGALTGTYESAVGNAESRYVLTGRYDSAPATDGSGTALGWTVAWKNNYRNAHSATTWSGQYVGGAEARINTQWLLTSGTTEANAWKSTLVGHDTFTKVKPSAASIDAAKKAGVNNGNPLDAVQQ

As for `CCCCCCCCCCCCCCCC(=O)OC[C@H](COP(=O)([O-])OCC[N+](C)(C)C)OC(=O)CCCCCCCCCCCCCCC` [DPPC lipids, 1,2-Dipalmitoyl-sn-Glycero-3-Phosphocholine], the lateral diffusion coefficient (at 37° C. (gel)) is 10^−10 cm^2/s and the lateral diffusion coefficient (in the fluid state) is listed as 5×10^−8 cm^2/s.
Consider `O=C(O)CCCC[C@@H]1SC[C@@H]2NC(=O)N[C@@H]21` [biotin], for which the “Ka of the biotin-streptavidin link” value in data set [1] is 10^13 M^−1.
On to phosphatidylserine, for which the “apparent pKa of phosphatidylserine's carboxyl group” value in data set [2] was 5.5.
